The text below walks through data of PubChem BioAssay (NCI).

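Cultured in 96-well plates, cells were exposed to test compound for 48 hours across five concentrations. At the GI50, growth is halved. TGI: concentration producing complete growth inhibition.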

For the first experiment, the system named is HS 578T breast. In words: inhibition of tumour cell growth, NCI panel, 48 h.
As to `O=C(O)/C=C(/C(=O)O)C12CCN3CC4=CCOC5CC(=O)NC1C5C4CC32` (configuration not stated), the TGI is over 100 µM.

As for `O=c1c2sc(=S)n(-c3ccc(F)cc3)c2ncn1/N=C/c1ccc(F)cc1F`, the TGI is 76.3 µM.

The compound `CS(=O)c1ncc2c(n1)-c1ccccc1OC2` (configuration not stated) showed a TGI of over 100 µM.

As for `COc1cccc2c1OC1(C=C2)Oc2ccccc2C(=O)N1C` (configuration not stated), the TGI came to 81.8 µM.

`O=[N+]([O-])c1ccc(Oc2c(Cl)cc(S(=O)(=O)/N=C(\NO)Nc3ccc(Cl)cc3)cc2Cl)cc1`: the TGI is 36.7 µM.

Compound `O=c1[nH]c(=O)n(C2OC(CO)C(O)C2O)c2nc(-c3ccc(-c4ccccc4)cc3)cnc12` (configuration not stated) registered a TGI of over 100 µM.

In turn, `CN1CSC(=S)N(c2c3ccccc3nc3ccc(Br)cc23)C1` gave a TGI of 47.2 µM.

In the case of `O=C(O)c1ccccc1CC1Cc2ccccc2C1=O` (configuration not stated), the TGI is over 100 µM.

`CCCCCCOc1ccc(C(=O)NOC)cc1` showed a TGI of over 100 µM.

The compound `NS(=O)(=O)c1cc(Cl)c(NC(=S)NC(=O)Nc2ccc(Cl)c(Cl)c2)c(Cl)c1` gave a TGI of over 100 µM.

Compound `Cc1cn(C2CC(O)C(CO)O2)c(=O)[nH]c1=O` (configuration not stated) registered a TGI of over 5000 µM.

As for `O=C1c2ccccc2-c2c1c(-c1ccc(F)cc1)nc1ccc3ccccc3c21`, the TGI is over 100 µM.

Turning to `O=C(O)CCC(=O)OC1N=C(c2ccccc2Cl)c2cc([N+](=O)[O-])ccc2NC1=O` (configuration not stated), the TGI was over 100 µM.

Take `CO[C@H]1/C=C(/C)CCC[C@H](C)[C@H](O)[C@@H](C)C(=O)C(C)(C)[C@@H](O)CC(=O)O[C@@H]1/C(C)=C/c1csc(C)n1`: the GI50 is 23.4 nM and the TGI was over 100 µM.

Turning to `COc1cccc2c(=O)oc(-c3ccc(C(C)(C)C)cc3)nc12`, the TGI is over 100 µM.

On to `COC(=O)C1CCC(=O)N1C(c1ccc(OC)cc1)c1ccc2c(c1)OCO2` (configuration not stated), for which the TGI was over 100 µM.

As to `CCN(CC)CCn1c(=O)c2cccnc2n2c3c(=O)n(C)c(=O)n(C)c3nc12`, the TGI was over 100 µM.

Compound `CC(=N/N=C/c1ccccn1)/C(C)=N/N=C(C)/C(C)=N/N=C(C)/C(C)=N/N=C(C)/C(C)=N\N=C\c1ccccn1` came in with a TGI of over 100 µM.

The compound `CC1=NN(c2cccc(Cl)c2)C2(C1=C/C=C/c1ccccc1)C(Cl)C(=O)N2c1nc2ccccc2s1` (configuration not stated) showed a TGI of 49 µM.

Consider `C=CCSc1nnc2cc(CN3CCCC3)c(-c3ccc(Cl)cc3)nn12`, for which the TGI was over 100 µM.

`CN(C)c1ccc(C(=N/N=C2\C(=O)Nc3ccccc32)c2ccc(N(C)C)cc2)cc1` returned a TGI of over 21.9 µM.

The compound `CCN(CC)CCN(C(=Nc1ccccc1)N1CCOCC1)c1ccccc1` gave a TGI of over 100 µM.

`CC1(C)CCCC2OC2CCC(C)(C)C1=O` (configuration not stated) gave a TGI of over 100 µM.

`COP(=O)(/C=C/c1cc(C(=O)OCc2ccccc2)n(S(=O)(=O)c2ccccc2)c1)OC` came in with a TGI of over 100 µM.

`NC1=NCC(CN2CCOCC2)O1` (configuration not stated) had a TGI of over 100 µM.

Compound `CCC1(CC)C(=O)NN(C(=O)c2ccccc2)C1=O` came in with a TGI of over 100 µM.

The next experiment deals with NCI-H460 lung. In words: inhibition of tumour cell growth, NCI panel, 48 h.
On to `O=C(O)/C=C(/C(=O)O)C12CCN3CC4=CCOC5CC(=O)NC1C5C4CC32` (configuration not stated), for which the TGI was over 100 µM.

As for `O=c1c2sc(=S)n(-c3ccc(F)cc3)c2ncn1/N=C/c1ccc(F)cc1F`, the TGI is over 100 µM.

On to `CS(=O)c1ncc2c(n1)-c1ccccc1OC2` (configuration not stated), for which the TGI was over 100 µM.

In turn, `COc1cccc2c1OC1(C=C2)Oc2ccccc2C(=O)N1C` (configuration not stated) gave a TGI of 98.6 µM.

`O=[N+]([O-])c1ccc(Oc2c(Cl)cc(S(=O)(=O)/N=C(\NO)Nc3ccc(Cl)cc3)cc2Cl)cc1`: the TGI is 24.8 µM.

As to `O=c1[nH]c(=O)n(C2OC(CO)C(O)C2O)c2nc(-c3ccc(-c4ccccc4)cc3)cnc12` (configuration not stated), the TGI was over 100 µM.

In turn, `CN1CSC(=S)N(c2c3ccccc3nc3ccc(Br)cc23)C1` had a TGI of 13.6 µM.

`O=C(O)c1ccccc1CC1Cc2ccccc2C1=O` (configuration not stated) showed a TGI of over 100 µM.

In turn, `CCCCCCOc1ccc(C(=O)NOC)cc1` showed a TGI of over 100 µM.

For `NS(=O)(=O)c1cc(Cl)c(NC(=S)NC(=O)Nc2ccc(Cl)c(Cl)c2)c(Cl)c1`, the TGI is over 100 µM.

For the compound `Cc1cn(C2CC(O)C(CO)O2)c(=O)[nH]c1=O` (configuration not stated), the TGI was over 5000 µM.

As to `O=C1c2ccccc2-c2c1c(-c1ccc(F)cc1)nc1ccc3ccccc3c21`, the TGI is over 100 µM.

Compound `O=C(O)CCC(=O)OC1N=C(c2ccccc2Cl)c2cc([N+](=O)[O-])ccc2NC1=O` (configuration not stated) yielded a TGI of over 100 µM.

As for `CO[C@H]1/C=C(/C)CCC[C@H](C)[C@H](O)[C@@H](C)C(=O)C(C)(C)[C@@H](O)CC(=O)O[C@@H]1/C(C)=C/c1csc(C)n1`, the GI50 was under 10 nM and the TGI was over 100 µM.

Take `COc1cccc2c(=O)oc(-c3ccc(C(C)(C)C)cc3)nc12`: the TGI was over 100 µM.

For the compound `COC(=O)C1CCC(=O)N1C(c1ccc(OC)cc1)c1ccc2c(c1)OCO2` (configuration not stated), the TGI was over 100 µM.

Compound `CCN(CC)CCn1c(=O)c2cccnc2n2c3c(=O)n(C)c(=O)n(C)c3nc12` returned a TGI of over 100 µM.

`CC(=N/N=C/c1ccccn1)/C(C)=N/N=C(C)/C(C)=N/N=C(C)/C(C)=N/N=C(C)/C(C)=N\N=C\c1ccccn1` had a TGI of over 100 µM.

`CC1=NN(c2cccc(Cl)c2)C2(C1=C/C=C/c1ccccc1)C(Cl)C(=O)N2c1nc2ccccc2s1` (configuration not stated) came in with a TGI of over 100 µM.

Compound `C=CCSc1nnc2cc(CN3CCCC3)c(-c3ccc(Cl)cc3)nn12` gave a TGI of 36.1 µM.

As to `CN(C)c1ccc(C(=N/N=C2\C(=O)Nc3ccccc32)c2ccc(N(C)C)cc2)cc1`, the TGI stood at 11.2 µM.

For `CCN(CC)CCN(C(=Nc1ccccc1)N1CCOCC1)c1ccccc1`, the TGI is over 100 µM.

The compound `CC1(C)CCCC2OC2CCC(C)(C)C1=O` (configuration not stated) had a TGI of over 100 µM.

In turn, `COP(=O)(/C=C/c1cc(C(=O)OCc2ccccc2)n(S(=O)(=O)c2ccccc2)c1)OC` showed a TGI of over 100 µM.

The compound `NC1=NCC(CN2CCOCC2)O1` (configuration not stated) yielded a TGI of over 100 µM.

In turn, `CCC1(CC)C(=O)NN(C(=O)c2ccccc2)C1=O` came in with a TGI of over 100 µM.

A further experiment concerns UACC-257 melanoma. In words: inhibition of tumour cell growth, NCI panel, 48 h.
In the case of `O=C(O)/C=C(/C(=O)O)C12CCN3CC4=CCOC5CC(=O)NC1C5C4CC32` (configuration not stated), the TGI was over 100 µM.

`O=c1c2sc(=S)n(-c3ccc(F)cc3)c2ncn1/N=C/c1ccc(F)cc1F` had a TGI of over 100 µM.

`CS(=O)c1ncc2c(n1)-c1ccccc1OC2` (configuration not stated) yielded a TGI of over 100 µM.

`COc1cccc2c1OC1(C=C2)Oc2ccccc2C(=O)N1C` (configuration not stated): the TGI is over 100 µM.

In the case of `O=[N+]([O-])c1ccc(Oc2c(Cl)cc(S(=O)(=O)/N=C(\NO)Nc3ccc(Cl)cc3)cc2Cl)cc1`, the TGI was found to be 22.6 µM.

In turn, `O=c1[nH]c(=O)n(C2OC(CO)C(O)C2O)c2nc(-c3ccc(-c4ccccc4)cc3)cnc12` (configuration not stated) gave a TGI of over 100 µM.

Compound `CN1CSC(=S)N(c2c3ccccc3nc3ccc(Br)cc23)C1` showed a TGI of 24.8 µM.

With `O=C(O)c1ccccc1CC1Cc2ccccc2C1=O` (configuration not stated), the TGI is over 100 µM.

Consider `CCCCCCOc1ccc(C(=O)NOC)cc1`, for which the TGI was over 100 µM.

Take `NS(=O)(=O)c1cc(Cl)c(NC(=S)NC(=O)Nc2ccc(Cl)c(Cl)c2)c(Cl)c1`: the TGI is over 100 µM.

Turning to `Cc1cn(C2CC(O)C(CO)O2)c(=O)[nH]c1=O` (configuration not stated), the TGI was over 5000 µM.

`O=C1c2ccccc2-c2c1c(-c1ccc(F)cc1)nc1ccc3ccccc3c21` returned a TGI of over 100 µM.

`O=C(O)CCC(=O)OC1N=C(c2ccccc2Cl)c2cc([N+](=O)[O-])ccc2NC1=O` (configuration not stated) showed a TGI of over 100 µM.
